The text below walks through data of US20250367166A1, “NEXT GENERATION DIPROVOCIMS THAT ACTIVATE THE INNATE AND ADAPTIVE IMMUNE RESPONSE” (The Scripps Research Institute, priority 2022, published 2025).

For assay [1], the target named is TLR1/TLR2 (Mus musculus, UniProt Q9EPQ1+Q9QUN7). As to the kind of experiment: TNF-α release from thioglycolate-elicited mouse peritoneal macrophages (ELISA). The following applies: for Emax: 4 h, read-out: Efficacy (magnitude) of response versus diprovocim-1 (100%), mouse macrophages; for EC50: read-out: EC50 (nM) (mouse): EC50 TNF-α release from mouse macrophages, Table 6. A general note: An ELISA detects its analyte on a solid surface through an enzyme-linked reagent.

Assay [2] concerns the target TLR1/TLR2 (Homo sapiens, UniProt O60603+Q15399). As to the kind of experiment: TNF-α release from PMA-differentiated human THP-1 cells (ELISA).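 For all read-outs here: cells exposed to graded compound concentrations for 4 h, TNF-α quantified in supernatant, LPS as positive and DMSO as negative control, values are duplicate means.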 To be noted: for Emax: THP-1, 4 h, read-out: Efficacy (magnitude) of response versus diprovocim-1 (100%), THP-1; for EC50: read-out: EC50 (nM) (THP-1): EC50 TNF-α release from human THP-1 cells, Table 6.

The term EC50 denotes the midpoint of the concentration-response curve.

Chain of TLR1/TLR2 (Homo sapiens, UniProt O60603+Q15399) (Q15399 25-786): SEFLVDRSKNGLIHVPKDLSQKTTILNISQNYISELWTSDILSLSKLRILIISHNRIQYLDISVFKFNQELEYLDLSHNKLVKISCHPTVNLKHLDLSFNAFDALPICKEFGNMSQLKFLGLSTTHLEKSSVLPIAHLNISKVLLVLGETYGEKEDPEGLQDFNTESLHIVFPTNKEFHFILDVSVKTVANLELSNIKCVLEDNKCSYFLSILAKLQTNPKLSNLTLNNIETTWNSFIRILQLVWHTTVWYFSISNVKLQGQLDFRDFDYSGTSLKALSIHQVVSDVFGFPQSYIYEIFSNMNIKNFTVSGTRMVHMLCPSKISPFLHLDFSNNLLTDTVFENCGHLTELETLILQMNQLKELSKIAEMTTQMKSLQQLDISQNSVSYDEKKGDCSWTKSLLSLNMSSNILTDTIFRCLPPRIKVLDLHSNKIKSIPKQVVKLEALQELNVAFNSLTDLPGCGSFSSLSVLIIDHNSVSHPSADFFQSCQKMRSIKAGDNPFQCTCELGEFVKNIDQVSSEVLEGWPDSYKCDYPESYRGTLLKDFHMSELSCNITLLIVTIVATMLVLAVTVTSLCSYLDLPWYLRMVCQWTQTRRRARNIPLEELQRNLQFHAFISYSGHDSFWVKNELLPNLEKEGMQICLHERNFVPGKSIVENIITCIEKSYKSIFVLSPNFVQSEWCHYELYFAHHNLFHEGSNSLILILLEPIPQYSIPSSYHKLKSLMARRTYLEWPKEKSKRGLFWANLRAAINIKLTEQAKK
Chain of TLR1/TLR2 (Homo sapiens, UniProt O60603+Q15399) (O60603 21-784): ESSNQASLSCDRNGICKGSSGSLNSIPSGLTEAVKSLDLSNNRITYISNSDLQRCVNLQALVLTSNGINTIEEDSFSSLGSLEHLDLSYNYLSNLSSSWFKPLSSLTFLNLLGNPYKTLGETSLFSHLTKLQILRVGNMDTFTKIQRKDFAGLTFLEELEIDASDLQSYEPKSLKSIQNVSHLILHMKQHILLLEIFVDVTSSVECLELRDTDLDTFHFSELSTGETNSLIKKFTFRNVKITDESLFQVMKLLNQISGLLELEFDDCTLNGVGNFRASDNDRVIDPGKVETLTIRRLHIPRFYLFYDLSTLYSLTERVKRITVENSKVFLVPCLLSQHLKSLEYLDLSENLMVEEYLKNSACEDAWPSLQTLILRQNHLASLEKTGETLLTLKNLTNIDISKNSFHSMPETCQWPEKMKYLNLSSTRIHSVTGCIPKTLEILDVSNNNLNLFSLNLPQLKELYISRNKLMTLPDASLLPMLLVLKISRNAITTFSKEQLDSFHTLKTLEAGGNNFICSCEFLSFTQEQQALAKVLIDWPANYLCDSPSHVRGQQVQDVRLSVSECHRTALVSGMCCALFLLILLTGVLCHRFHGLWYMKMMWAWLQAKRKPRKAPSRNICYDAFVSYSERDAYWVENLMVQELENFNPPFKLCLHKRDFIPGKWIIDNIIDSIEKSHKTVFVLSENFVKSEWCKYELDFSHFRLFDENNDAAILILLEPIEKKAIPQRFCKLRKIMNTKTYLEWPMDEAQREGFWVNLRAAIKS
Chain of TLR1/TLR2 (Mus musculus, UniProt Q9EPQ1+Q9QUN7) (Q9EPQ1 26-795): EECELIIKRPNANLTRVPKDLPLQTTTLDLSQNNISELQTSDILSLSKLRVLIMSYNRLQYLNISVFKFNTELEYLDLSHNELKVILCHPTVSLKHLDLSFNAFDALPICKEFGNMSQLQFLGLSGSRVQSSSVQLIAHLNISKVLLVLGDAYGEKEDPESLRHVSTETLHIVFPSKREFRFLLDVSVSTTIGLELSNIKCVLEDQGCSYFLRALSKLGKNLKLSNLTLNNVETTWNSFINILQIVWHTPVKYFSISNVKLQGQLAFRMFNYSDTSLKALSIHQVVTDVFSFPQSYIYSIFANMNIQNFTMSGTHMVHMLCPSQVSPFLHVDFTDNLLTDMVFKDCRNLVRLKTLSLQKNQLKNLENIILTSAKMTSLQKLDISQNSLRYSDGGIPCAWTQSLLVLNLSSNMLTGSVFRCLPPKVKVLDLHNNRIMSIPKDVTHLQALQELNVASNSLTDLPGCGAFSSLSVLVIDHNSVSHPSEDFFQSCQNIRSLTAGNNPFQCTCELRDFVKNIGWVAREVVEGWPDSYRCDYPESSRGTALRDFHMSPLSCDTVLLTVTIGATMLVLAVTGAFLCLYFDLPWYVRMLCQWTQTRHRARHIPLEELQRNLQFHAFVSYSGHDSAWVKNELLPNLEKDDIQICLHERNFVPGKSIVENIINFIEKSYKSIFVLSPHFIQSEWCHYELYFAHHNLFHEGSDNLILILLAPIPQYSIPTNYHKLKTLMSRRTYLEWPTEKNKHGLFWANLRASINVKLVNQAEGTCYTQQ
Chain of TLR1/TLR2 (Mus musculus, UniProt Q9EPQ1+Q9QUN7) (Q9QUN7 25-784): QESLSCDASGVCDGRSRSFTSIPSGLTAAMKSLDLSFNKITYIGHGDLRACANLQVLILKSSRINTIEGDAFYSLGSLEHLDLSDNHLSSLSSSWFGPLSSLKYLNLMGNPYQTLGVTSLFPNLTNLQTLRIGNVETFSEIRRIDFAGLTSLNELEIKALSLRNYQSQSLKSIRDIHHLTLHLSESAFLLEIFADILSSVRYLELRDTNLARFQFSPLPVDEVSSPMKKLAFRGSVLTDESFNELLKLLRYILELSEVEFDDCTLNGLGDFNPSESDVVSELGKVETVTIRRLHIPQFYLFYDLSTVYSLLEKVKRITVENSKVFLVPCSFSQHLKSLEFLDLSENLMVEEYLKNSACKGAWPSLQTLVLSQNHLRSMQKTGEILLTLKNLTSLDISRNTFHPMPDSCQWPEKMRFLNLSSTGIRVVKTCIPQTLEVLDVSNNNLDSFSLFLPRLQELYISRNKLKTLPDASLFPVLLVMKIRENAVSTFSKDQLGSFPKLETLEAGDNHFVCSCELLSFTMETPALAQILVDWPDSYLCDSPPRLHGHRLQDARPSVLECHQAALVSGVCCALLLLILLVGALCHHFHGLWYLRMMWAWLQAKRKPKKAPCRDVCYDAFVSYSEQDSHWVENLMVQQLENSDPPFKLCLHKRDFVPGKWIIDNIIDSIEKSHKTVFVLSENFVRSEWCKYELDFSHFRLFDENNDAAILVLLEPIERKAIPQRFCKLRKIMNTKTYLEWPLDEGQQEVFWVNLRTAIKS

Consider `O=C(O)/C=C/C(=O)NCC(=O)OCCCCCCCCCCCCNC(=O)[C@@H]1CN(C(=O)c2ccc(C(=O)N3C[C@@H](C(=O)N[C@H]4C[C@@H]4c4ccccc4)[C@H](C(=O)N[C@H]4C[C@@H]4c4ccccc4)C3)cc2)C[C@H]1C(=O)N[C@H]1C[C@@H]1c1ccccc1` [Compound 82, (E)-4-((2-((12-((3S,4S)-1-(4-((3S,4S)-3,4-Bis(((1S,2R)-2-phenylcyclopropyl)carbamoyl)-pyrrolidine-1-carbonyl)benzoyl)-4-(((1S,2R)-2-phenylcyclopropyl)carbamoyl)pyrrolidine-3-carboxamido)dodecyl)oxy)-2-oxoethyl)amino)-4-oxobut-2-enoic acid], for which, at TLR1/TLR2 [1], the Emax turned out to be 60% and the EC50 is 7 nM. Besides, at TLR1/TLR2 [2], the Emax turned out to be 100% and the EC50 came out at 0.32 nM.

Take `CC(C)(C)OC(=O)C(=O)NCC(=O)OCCCCCCCCCCCCNC(=O)[C@@H]1CN(C(=O)c2ccc(C(=O)N3C[C@@H](C(=O)N[C@H]4C[C@@H]4c4ccccc4)[C@H](C(=O)N[C@H]4C[C@@H]4c4ccccc4)C3)cc2)C[C@H]1C(=O)N[C@H]1C[C@@H]1c1ccccc1` [Compound 83, tert-Butyl 2-((2-((12-((3S,4S)-1-(4-((3S,4S)-3,4-bis(((1S,2R)-2-phenylcyclopropyl)carbamoyl)-pyrrolidine-1-carbonyl)benzoyl)-4-(((1S,2R)-2-phenylcyclopropyl)carbamoyl)pyrrolidine-3-carboxamido)dodecyl)oxy)-2-oxoethyl)amino)-2-oxoacetate]: at TLR1/TLR2 [1], the Emax was 400% and the EC50 came out at 16 nM. Moreover, on TLR1/TLR2 [2], the Emax was 110% and the EC50 was found to be 0.54 nM.

Consider `O=C(CNC(=O)C(=O)O)OCCCCCCCCCCCCNC(=O)[C@@H]1CN(C(=O)c2ccc(C(=O)N3C[C@@H](C(=O)N[C@H]4C[C@@H]4c4ccccc4)[C@H](C(=O)N[C@H]4C[C@@H]4c4ccccc4)C3)cc2)C[C@H]1C(=O)N[C@H]1C[C@@H]1c1ccccc1` [Compound 84, 2-((2-((12-((3S,4S)-1-(4-((3S,4S)-3,4-Bis(((1S,2R)-2-phenylcyclopropyl)carbamoyl)pyrrolidine-1-carbonyl)benzoyl)-4-(((1S,2R)-2-phenylcyclopropyl)carbamoyl)pyrrolidine-3-carboxamido)-dodecyl)oxy)-2-oxoethyl)amino)-2-oxoacetic acid], for which the values for the Emax at TLR1/TLR2 [1] and on TLR1/TLR2 [2] were 250% and 120%, respectively. For the same compound, the EC50 on TLR1/TLR2 [1] was 6.7 nM; on TLR1/TLR2 [2], 0.23 nM.

`CC(C)(C)OC(=O)c1ccc(C(=O)NCCOCCCCCCCCCCCCNC(=O)[C@@H]2CN(C(=O)c3ccc(C(=O)N4C[C@@H](C(=O)N[C@H]5C[C@@H]5c5ccccc5)[C@H](C(=O)N[C@H]5C[C@@H]5c5ccccc5)C4)cc3)C[C@H]2C(=O)N[C@H]2C[C@@H]2c2ccccc2)cc1` [Compound 85, tert-Butyl 4-((2-((12-((3S,4S)-1-(4-((3S,4S)-3,4-bis-(((1S,2R)-2-phenylcyclopropyl)carbamoyl)-pyrrolidine-1-carbonyl)benzoyl)-4-(((1S,2R)-2-phenylcyclopropyl)-carbamoyl)pyrrolidine-3-carboxamido)dodecyl)-oxy)ethyl)carbamoyl)benzoate]: at TLR1/TLR2 [1], the Emax came to 160% and the EC50 stood at 36 nM. Besides, on TLR1/TLR2 [2], the Emax is 110% and the EC50 was 13.4 nM.

With `O=C(O)c1ccc(C(=O)NCCOCCCCCCCCCCCCNC(=O)[C@@H]2CN(C(=O)c3ccc(C(=O)N4C[C@@H](C(=O)N[C@H]5C[C@@H]5c5ccccc5)[C@H](C(=O)N[C@H]5C[C@@H]5c5ccccc5)C4)cc3)C[C@H]2C(=O)N[C@H]2C[C@@H]2c2ccccc2)cc1` [Compound 86, 4-((2-((12-((3S,4S)-1-(4-((3S,4S)-3,4-Bis(((1S,2R)-2-phenylcyclopropyl)carbamoyl)pyrrolidine-1-carbonyl)benzoyl)-4-(((1S,2R)-2-phenylcyclopropyl)-carbamoyl)pyrrolidine-3-carboxamido)dodecyl)-oxy)ethyl)carbamoyl)benzoic acid], at TLR1/TLR2 [1], the Emax worked out at 50% and the EC50 came out at 49 nM. In addition, at TLR1/TLR2 [2], the Emax was 100% and the EC50 is 2.9 nM.
